Data: PMC3718762, “Differential Disruption of EWS-FLI1 Binding by DNA-Binding Agents” (PLoS ONE, 2013)
Starred links: 1 amine or outer side, 2 acyl side, 3 side chain; linkers in the order of their positions; H or OH if unused. Positions of bridges follow the written chain, without caps; N, C: chain ends. Non-standard residues stand in square brackets, D forms with d. Residues, ends and D or L forms follow the SMILES beside them. Chains are numbered I, II in the order given. Actinocin(9to1) = Cc1c2oc3c(C)ccc(C(=O)[*:1])c3nc-2c(C(=O)[*:2])c(N)c1=O; NMeV = CN[C@H](C(=O)O)C(C)C; Sar = CNCC(=O)O

Key:
[1] = system: EWS-FLI1-induced genes; experiment: Gene expression profiling with GSEA in A673 cells; format: cell-based; details: 5 nM, 24 hours
Method: Ewing sarcoma A673 cells at 65% confluence were treated in duplicate with DMSO (0.2%) or 5 nM actinomycin D for 24 hours. RNA was extracted with an Absolutely RNA kit. 100 ng of total RNA was hybridized to Affymetrix Gene 1.0 ST Arrays (DFCI Microarray Core Facility). Array quality was verified before background correction, RMA normalization and log2 conversion using the Bioconductor R package affy (URL: http://www.bioconductor.org). Differential gene expression was determined using the limma Bioconductor package. Genes with a fold-change >2 and Benjamini-Hochberg-corrected p-value <0.01 were retained for further consideration. Gene expression data have been deposited in GEO (GSE45414) and can be accessed at URL: http://www.ncbi.nlm.nih.gov/geo/query/acc.cgi?acc=GSE45414.
Consistent with the enrichment of E2F targets among EWS-FLI1-induced genes we noted in the shRNA study above (Figure 3A), we also found down-regulation of this class of signatures in A673 cells treated with low-dose actinomycin D (Figure 3B, black circles).

[2] = system: EWS-FLI1; experiment: AlphaScreen proximity assay, binding of recombinant EWS-FLI1 to cognate DNA oligo
[3] = system: UbC promoter; experiment: UbC-Renilla luciferase reporter (internal control) in A673 cells; format: cell-based; details: Homo sapiens, 16 hours, read-out: IC50 for inhibition of UbC promoter activity
Method: Ewing sarcoma A673 cells at 50% confluence in 100 mm dishes were transfected with both 5.8 µg of pGL.3b-NR0B1 and 0.2 µg of pGL.3b-Ubc-RL reporter plasmids as above. Eight hours post-transfection, cells were trypsinized and 600 ul (2×10^5) of cells were added to each well of 24 well plates. 5 µl of different concentration of compounds or DMSO control were added to each well. Each treatment was performed in triplicate. Cells were incubated for 16 hours, then cells were lysed in 100 µl of lysis buffer and 10 µl of cell lysate was used for the dual luciferase assay. Renilla luciferase activity was used as an internal control for normalization of nonspecific transcriptional inhibition or cytotoxic effects. Experiments were repeated three times. IC50 values were calculated using Prism (Graphpad).
To determine the effect of compounds on EWS-FLI1 activity in cells, we used a reporter assay comprised of the NR0B1 promoter, a prototypical EWS-FLI1-regulated gene, driving expression of firefly luciferase. Renilla luciferase driven by the Ubiquitin C promoter (UbC-RL) was used as an internal control. Confirming prior studies, the NR0B1 promoter was verified to be highly responsive to EWS-FLI1, whereas the UbC promoter activity was not subject to regulation by EWS-FLI1 (Figure S1).

[4] = biological target: T1, EWS-FLI1 binding to the NR0B1 promoter (Homo sapiens, UniProt Q01543+Q01844); experiment: ChIP-qPCR, EWS-FLI1 binding to NR0B1 promoter in A673 cells; format: cell-based; details: 5 nM, 4 hrs, anti-FLI1 ChIP, DMSO 31-fold, p = 0.0018
T1 construct: EWS (EWSR1, Q01844) N-terminal portion, fusion partner; endogenous in cells; host or cells: A673 Ewing sarcoma cells
T1 sequence (Q01844+Q01543 with tags, fused parts or gaps): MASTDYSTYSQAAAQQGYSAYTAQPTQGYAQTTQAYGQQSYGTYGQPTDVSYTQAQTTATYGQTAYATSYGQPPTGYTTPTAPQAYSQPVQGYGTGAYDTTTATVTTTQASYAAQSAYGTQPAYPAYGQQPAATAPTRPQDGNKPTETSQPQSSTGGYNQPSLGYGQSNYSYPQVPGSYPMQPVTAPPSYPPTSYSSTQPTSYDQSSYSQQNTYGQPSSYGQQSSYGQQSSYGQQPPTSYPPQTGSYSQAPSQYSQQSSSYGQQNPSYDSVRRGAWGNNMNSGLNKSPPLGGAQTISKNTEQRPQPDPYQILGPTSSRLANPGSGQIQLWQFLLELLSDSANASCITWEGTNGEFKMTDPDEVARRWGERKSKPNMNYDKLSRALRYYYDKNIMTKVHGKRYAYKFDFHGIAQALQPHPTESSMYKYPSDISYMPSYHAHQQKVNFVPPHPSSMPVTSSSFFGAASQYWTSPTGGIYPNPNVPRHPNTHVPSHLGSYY
Method: ChIP-qPCR was performed as previously described. Briefly, cells were treated with compounds for 4 hrs, then crosslinked, lysed, and chromatin fragmented. After ChIP, quantitative PCR was used to quantify NR0B1, p53, and RPS26 loci, and fold enrichment was determined by the formula: Fold enrichment = 2χ(Input Ct-ChIP Ct)/2χ(Input Ct-IgG Ct).
We used chromatin immunoprecipitation coupled with quantitative PCR (ChIP-qPCR) to assess effects of actinomycin D on EWS-FLI1 binding to chromatin in cells. A673 cells were treated with either actinomycin D at 5 nM, or vehicle. After crosslinking, chromatin was sheared and EWS-FLI1-DNA complexes were immunoprecipitated using an anti-FLI1 antibody. We used primers flanking the EWS-FLI1-binding site in the promoter of the NR0B1 gene to quantify binding of EWS-FLI1. We used RPS26 and TP53 as control loci since neither are bound by EWS-FLI [15] and we have shown that RPS26 and TP53 transcript levels were unaffected by actinomycin D treatment (Figure 2F). Without actinomycin D treatment, binding of EWS-FLI1 to the NR0B1 promoter was enriched 31-fold by comparison to IgG controls (Figure 4A, DMSO). Treatment of cells with actinomycin D reduced binding of EWS-FLI1 to the NR0B1 promoter to 4-fold (p = 0.0018; Figure 4A).

[5] = biological target: T2, p53 (Homo sapiens, UniProt P04637); experiment: AlphaScreen proximity assay (counterscreen), binding of recombinant p53 to cognate DNA oligo
T2 construct: made in house; host or cells: bacteria (pGex-6P-1-p53); plasmid was a gift from Dr. Guangchao Sui
T2 sequence (P04637 whole entry, species assumed): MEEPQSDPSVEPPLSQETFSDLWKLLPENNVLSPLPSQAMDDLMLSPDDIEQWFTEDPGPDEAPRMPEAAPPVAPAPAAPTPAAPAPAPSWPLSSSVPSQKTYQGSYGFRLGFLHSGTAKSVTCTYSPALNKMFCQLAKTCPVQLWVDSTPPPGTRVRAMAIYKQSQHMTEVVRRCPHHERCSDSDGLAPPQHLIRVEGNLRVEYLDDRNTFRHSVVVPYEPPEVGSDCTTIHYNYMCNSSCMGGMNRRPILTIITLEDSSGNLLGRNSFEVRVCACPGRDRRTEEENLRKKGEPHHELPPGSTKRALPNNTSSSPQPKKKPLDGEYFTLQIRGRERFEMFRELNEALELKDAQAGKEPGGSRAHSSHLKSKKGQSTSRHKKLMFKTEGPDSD
Excerpt: An AlphaScreen assay for binding of recombinant EWS-FLI1 to DNA was previously described. Briefly, recombinant EWS-FLI1 and p53 were synthesized in bacteria transformed with pGex-6P-1-EWS-FLI1 or pGex-6P-1-p53, and bound to AlphaScreen acceptor beads. A biotinylated oligonucleotide containing two copies of the EWS-FLI1 binding motif or p53 binding motifs was bound to AlphaScreen donor beads. For EWS-FLI1, the oligo sequence was: […]. The p53 binding oligo sequence was: […]. This assay was used to screen 5,200 compounds, as previously described. IC50 values were calculated with the GraphPad Prism software package.
We developed a homogeneous AlphaScreen assay to assess the binding of recombinant EWS-FLI1 to DNA [18]. A parallel assay assessing binding of p53 to DNA was used as a counterscreen. Briefly, in these proximity assays, recombinant GST-EWS-FLI1 or GST-p53 was bound to glutathione-conjugated AlphaScreen acceptor beads, and a synthetic biotinylated oligonucleotide (oligo) containing tandem EWS-FLI1 or p53 binding sites was bound to streptavidin-conjugated AlphaScreen donor beads. Binding of GST-EWS-FLI1 or GST-p53 to the cognate oligo allows singlet oxygen transfer from donor to acceptor beads when excited at 680 nm, with resulting light emission between 520–620 nm.

Cc1c2oc3c(C)ccc(C(=O)N[C@@H]4C(=O)N[C@H](C(C)C)C(=O)N5CCC[C@H]5C(=O)N(C)CC(=O)N(C)[C@@H](C(C)C)C(=O)O[C@@H]4C)c3nc-2c(C(=O)N[C@@H]2C(=O)N[C@H](C(C)C)C(=O)N3CCC[C@H]3C(=O)N(C)CC(=O)N(C)[C@@H](C(C)C)C(=O)O[C@@H]2C)c(N)c1=O [Actinomycin D] (I: T[dV]P[Sar][NMeV] / II: T[dV]P[Sar][NMeV]; ester I:1-I:C, II:1-II:C; linker I:N-II:N via Actinocin(9to1))
Expression of EWS-FLI1-induced genes (GSEA) [1]: repressed to a significant degree
Disruption of EWS-FLI1 binding compared with p53 binding in the parallel assays ([2]; EWS-FLI1 versus p53): greatest differential effect
IC50 ([2]; read-out: IC50 EWS-FLI1, disruption of recombinant EWS-FLI1 binding to DNA): 45 nM
IC50 [3]: 14 nM
Binding of EWS-FLI1 to the NR0B1 promoter, fold enrichment over IgG control [4]: 4 fold
IC50 [5]: > 10000 nM
